These results are taken from ChEMBL document CHEMBL5505981, “Design, synthesis and biological evaluation of novel 1,2,4a,5-tetrahydro-4H-benzo[b][1,4]oxazino[4,3-d][1,4]oxazine-based AAK1 inhibitors with anti-viral property against SARS-CoV-2” (Eur J Med Chem, 2024).

One data set deals with Dengue virus. Description: Antiviral activity against DENV infected in human Huh-7 cells. In kind it is functional, organism-based.
The test system of the next data set is Ebolavirus. The data set can be described thus: Antiviral activity against EBOV. It counts as functional, organism-based. Particulars: Orthoebolavirus.
The nature of data set [1]: Cytotoxicity against human Huh-7 cells. In kind it is toxicity, cell-based.
The test system of data set [2] is HEK293. In kind it is toxicity, cell-based. Conditions: human, hek293, 48 h, 6 µM.
Data set [3] deals with T1, AP2-associated protein kinase 1 (Homo sapiens, UniProt Q2M2I8). It counts as cell-based.
T1 sequence (Q2M2I8 whole entry): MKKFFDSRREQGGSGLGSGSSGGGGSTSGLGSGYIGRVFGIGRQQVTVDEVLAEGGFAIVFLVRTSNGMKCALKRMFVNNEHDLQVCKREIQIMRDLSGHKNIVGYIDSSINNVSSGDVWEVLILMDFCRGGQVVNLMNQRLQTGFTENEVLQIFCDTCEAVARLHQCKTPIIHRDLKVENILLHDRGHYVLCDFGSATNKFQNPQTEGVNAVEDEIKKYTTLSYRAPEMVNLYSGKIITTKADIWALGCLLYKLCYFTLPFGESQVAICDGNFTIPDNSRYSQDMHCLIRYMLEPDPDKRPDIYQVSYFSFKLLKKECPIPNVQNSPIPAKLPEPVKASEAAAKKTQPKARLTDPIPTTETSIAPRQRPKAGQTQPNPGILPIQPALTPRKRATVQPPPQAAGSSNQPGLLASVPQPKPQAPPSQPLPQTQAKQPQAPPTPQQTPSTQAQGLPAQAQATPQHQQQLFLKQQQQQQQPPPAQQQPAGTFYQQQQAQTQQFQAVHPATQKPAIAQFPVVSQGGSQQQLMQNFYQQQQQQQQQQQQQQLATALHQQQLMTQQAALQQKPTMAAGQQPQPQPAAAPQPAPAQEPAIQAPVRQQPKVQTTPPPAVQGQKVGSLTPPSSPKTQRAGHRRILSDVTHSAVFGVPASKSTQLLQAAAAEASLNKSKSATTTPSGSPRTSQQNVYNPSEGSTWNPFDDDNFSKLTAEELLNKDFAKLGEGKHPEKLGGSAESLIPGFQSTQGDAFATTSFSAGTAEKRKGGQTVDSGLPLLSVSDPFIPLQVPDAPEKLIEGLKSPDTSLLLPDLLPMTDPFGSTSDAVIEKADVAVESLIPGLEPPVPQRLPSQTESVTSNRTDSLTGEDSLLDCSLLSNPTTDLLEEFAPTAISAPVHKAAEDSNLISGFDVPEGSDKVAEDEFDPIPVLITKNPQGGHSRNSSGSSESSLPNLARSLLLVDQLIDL
In data set [4] the test system is HEK293. In kind it is toxicity, cell-based. Particulars: human, hek293, 48 h, 20 µM.
The nature of data set [5]: Cytotoxicity against human Huh7.5 cells. It counts as toxicity, cell-based, Huh-7.5.
Data set [6] deals with HEK293. In kind it is toxicity, cell-based. Particulars: human, hek293, 48 h, 30 µM.
In data set [7] the target is T1, AP2-associated protein kinase 1. The data set can be described thus: Inhibition of AAK1 (unknown origin).

Turning to `N#Cc1ccc(-c2cnc3[nH]cc(NC(=O)c4cccnc4)c3c2)cc1`, the concentration for a half-maximal effect (EC50) with Dengue virus was 8000 nM; with Ebolavirus, above 10000 nM. Further, in data set [1], the cytotoxic concentration (CC50) is above 50000 nM. Regarding `COc1ccc(-c2cnc3[nH]cc(C#Cc4cccnc4)c3c2)cc1OC`, the Activity result with HEK293 [2] is “Toxic”. The same molecule returned an EC50 in the data set with Dengue virus of 720 nM. Moreover, in data set [3], half-maximal inhibition (IC50) was put at 7.57 nM.

Consider `CCN(CC)CCNC(=O)c1c(C)[nH]c(/C=C2\C(=O)Nc3ccc(F)cc32)c1C` [SUNITINIB], for which the Activity result in the data set on HEK293 [4] was “Non-Toxic”. Further, the cytotoxic concentration (CC50) in data set [5] was above 10000 nM; in data set [1], 11500 nM.

`C(#Cc1c[nH]c2ncc(-c3ccc4c(c3)OCC3COCCN43)cc12)c1ccccc1` (stereo not given) displayed a half-maximal inhibitory concentration (IC50) in [3] above 500 nM.

In the case of `CCN(CC)S(=O)(=O)Nc1cccc(-c2ccc3c(NC(=O)C4CC4)n[nH]c3c2)c1`, in the data set on HEK293 [6], the Activity entry is “Non-Toxic”. In data set [3], `NCCCC#Cc1c[nH]c2ncc(-c3ccc4c(c3)OCC3COCCN43)cc12` (stereo not given) registered an IC50 above 500 nM.

In the case of `C(#Cc1c[nH]c2ncc(-c3ccc4c(c3)OCC3COCCN43)cc12)c1cccnc1` (stereo not given), in the data set on HEK293 [2], the Activity entry is reported as “Toxic”.

As for `CC(C)C[C@](C)(N)COc1ccc(-c2ccnc(C(F)F)c2)nc1C(F)F` [PILAVAPADIN], half-maximal inhibition in [7] (IC50) required 1.2 nM. In addition, the Activity entry in the data set with HEK293 [6] was “Non-Toxic”.
